Experimental data from US7645759B2, “Non-peptide bradykinin antagonists and pharmaceutical compositions therefrom” (Istituto Luso Farmaco D'Italia S.p.A., priority 2004, dated 2010).
Where a name gives a salt, the structure may show the parent alone. Read-outs that look alike come from different tables or passages of the source.

What was measured:
BK-induced bronchospasm = assay: Inhibition of BK-induced bronchospasm in the guinea pig; format: in vivo; conditions: intratracheal dose which inhibited by 80% bronchial constriction for at least 210 min; for ED80: Cavia porcellus, inhaled or nasal, 3.5 h, read-out: it Dose
Description: The in vivo activity of the compounds of the present invention was evaluated as effectiveness in inhibiting BK-induced bronchospasm in the guinea pig (Tramontana, et al., J. Pharmacol. Exp. Therap. 296:1051-1057 (2001)), measuring the it dose (it=intratracheal administration) (in nmols/kg) which inhibited by 80% bronchial constriction for at least 210 min.

B2 human receptor [1] = biological target: T1, B2 human receptor (Homo sapiens, UniProt P30411); assay: cell-based
T1 construct: expressed in transfected cells; host or cells: CHO cells
T1 sequence (P30411 1-391): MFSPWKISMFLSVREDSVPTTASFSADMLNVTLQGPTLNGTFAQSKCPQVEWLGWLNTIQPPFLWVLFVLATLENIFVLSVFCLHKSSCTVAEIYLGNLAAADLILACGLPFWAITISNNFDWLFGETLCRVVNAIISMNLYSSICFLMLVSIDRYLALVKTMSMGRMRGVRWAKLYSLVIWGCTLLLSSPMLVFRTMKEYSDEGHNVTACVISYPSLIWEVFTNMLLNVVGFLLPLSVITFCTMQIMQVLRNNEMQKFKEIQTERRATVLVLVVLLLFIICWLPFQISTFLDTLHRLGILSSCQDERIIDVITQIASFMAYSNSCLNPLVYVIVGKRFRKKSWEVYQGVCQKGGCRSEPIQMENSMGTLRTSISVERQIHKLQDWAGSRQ

B2 human receptor [2] = biological target: T1, B2 human receptor; assay: Binding to the human B2 receptor expressed in CHO cells
[3] = antagonistic activity, bradykinin-induced inositol production, CHO cells transfected with B2 human receptor, read-out: pA2 (converted)
[4] = human B2 receptor expressed in CHO cells, read-out: pKi (converted)
[5] = antagonistic activity, bradykinin-induced inositol production, CHO cells transfected with B2 human receptor
[6] = human B2 receptor expressed in CHO cells

Row | SMILES | ED80 (BK-induced bronchospasm) [µmol/kg] | Kb (B2 human receptor [1]; [3]) [nM] | Ki (B2 human receptor [2]; [4]) [nM] | Kb (B2 human receptor [1]) [nM] | Ki (B2 human receptor [2]) [nM] | it Dose (BK-induced bronchospasm) [nmols/kg] | pA2 (B2 human receptor [1]; [5]) | pKi (B2 human receptor [2]; [6])
1 | Cc1cc(C)c2cccc(OCc3c(Cl)ccc(S(=O)(=O)NC4(C(=O)N5CCN(C(=O)C(N)CCCCN(C)C)CC5)CCCC4)c3Cl)c2n1 (stereo not shown) [WO03103671 ex 59] | 0.3 | 1 | 1.58 | – | – | – | – | –
2 | Cc1ccc2cccc(OCc3c(Cl)ccc(S(=O)(=O)NC4(C(=O)N5CCN(C(=O)C(N)CCCNC(=N)N)CC5)CCCC4)c3Cl)c2n1 (stereo not shown) [WO03103671 ex 55] | 0.3 | – | – | 3.98 | 2 | – | – | –
3 | Cc1cc(C)c2cccc(OCc3c(Cl)ccc(S(=O)(=O)NC4(C(=O)N5CCN(C(=O)[C@@H](N)CCC[N+](C)(C)C)CC5)CCCC4)c3Cl)c2n1 [Example 4, [4-(S)-Amino-5-(4-{1-[2,4-dichloro-3-(2,4-dimethyl-quinolin-8-yloxymethyl)-benzenesulfonylamino]cyclopentanecarbonyl}piperazin-1-yl)-5-oxo-pentyl]-trimethyl-ammonium chloride, dihydrochloride.] | 0.1 | 0.398 | 0.0794 | – | – | – | – | –
4 | Cc1cc(C)c2cccc(OCc3c(Cl)ccc(S(=O)(=O)NC4(C(=O)N5CCN(C(=O)CCCC[N+](C)(C)C)CC5)CCOCC4)c3Cl)c2n1.O=C([O-])C(F)(F)F [Example 3, [5-(4-{4-[2,4-Dichloro-3-(2,4-dimethyl-quinolin-8-yloxymethyl)-benzene-sulfonylamino]tetrahydropyran-4-carbonyl}piperazin-1-yl)-5-oxo-pentyl]-trimethyl-ammonium trifluoroacetate.] | – | – | – | – | – | 100 | 9.5 | 10.1
5 | Cc1ccc2cccc(OCc3c(Cl)ccc(S(=O)(=O)NC4(C(=O)N5CCN(C(=O)[C@@H](N)CCC[N+](C)(C)C)CC5)CCOCC4)c3Cl)c2n1 [Example 2, (4-(S)-Amino-5-(4-(4-(2,4-dichloro-3-(2-methyl-quinolin-8-yloxymethyl)-benzenesulfonylamino)tetrahydropyran-4-carbonyl)-piperazin-1-yl-)5-oxo-pentyl)-trimethylammonium chloride, hydrochloride] | 0.1 | 0.2 | 0.0631 | – | – | – | – | –
6 | Cc1cc(C)c2cccc(OCc3c(Cl)ccc(S(=O)(=O)NC4(C(=O)N5CCN(C(=O)C(N)CCCCN)CC5)CCCC4)c3Cl)c2n1 (stereo not shown) [WO03103671 ex 63] | 0.3 | 1.26 | 0.794 | – | – | – | – | –
7 | Cc1ccc2cccc(OCc3c(Cl)ccc(S(=O)(=O)NC4(C(=O)N5CCN(C(=O)C(N)CCCCN(C)C)CC5)CCCC4)c3Cl)c2n1 (stereo not shown) [WO03103671 ex 57] | 0.3 | – | – | 5.01 | 1.58 | – | – | –
8 | CCN=C(NCC)NCCCC(N)C(=O)N1CCN(C(=O)C2(NS(=O)(=O)c3ccc(Cl)c(COc4cccc5c(C)cc(C)nc45)c3Cl)CCCC2)CC1 (stereo not shown) [WO03103671 ex 44] | 0.3 | – | – | 1 | – | – | – | –
9 | Cc1cc(C)c2cccc(OCc3c(Cl)ccc(S(=O)(=O)NC4(C(=O)N5CCN(C(=O)C(CCCC[N+](C)(C)C)[N+](C)(C)C)CC5)CCCC4)c3Cl)c2n1 (stereo not shown) [WO03103671 ex 88] | – | – | – | 6.31 | 0.2 | – | – | –
10 | Cc1cc(C)c2cccc(OCc3c(Cl)ccc(S(=O)(=O)NC4(C(=O)N5CCN(C(=O)[C@@H](N)CCC[N+](C)(C)C)CC5)CCOCC4)c3Cl)c2n1.Cl.Cl.[Cl-] [Example 1, (4-(S)-amino-5-(4-{4-[2,4-dichloro-3-(2,4-dimethyl-quinolin-8-yloxymethyl)-benzenesulfonylamino]tetrahydropyran-4-carbonyl}piperazin-1-yl)-5-oxo-pentyl]trimethyl-ammonium chloride, dihydrochloride] | 0.03 | – | – | – | – | – | 10.3 | 10.3
